Test results as given in patent publication US20150071918A1, “PEPTIDES FOR THE TREATMENT OF CANCER” (H. LEE MOFFITT CANCER CENTER AND RESEARCH INSTITUTE, INC., priority 2012, published 2015).
*1 amine or outer side, *2 acyl side, *3 side chain or, on linkers, in order; H or OH if unused. Where a SMILES comes first, the peptide text is derived from it. Bridges are numbered along the chain shown (N, C = ends). [ ]: non-standard residue; d: D form. The star is where a group is joined. dProlinol(O-CH2CO) = O=C(COC[C@H]1CCCN1[*:1])[*:2]; N(2-Aminoethyl)Gly = O=C(CN(CCN[*:3])[*:1])[*:2]; Nle = CCCC[C@H](N)C(=O)O; Ms = CS(=O)(=O)*

Experiments:
H929-60 cell line = test: Cross-resistance in cell line selected for resistance to HYD1; format: cell-based; conditions: H929-60, selected for resistance to HYD1
[1] = system: cleaved caspase-3, ATP in NCI-H929 and U266 MM cells; test: Mechanism of cell death in MM cells (cleaved caspase-3, ATP, ROS); format: cell-based
Description: FIGS. 56A-56F. […] FIG. 56A: Chemical structure of MTI-101 (also referred to herein as HM-27). FIG. 56B: Direct comparison of HYD1 and MTI-101 in NCI-H929 cells. […] FIG. 56F: NCI-H929 and U266 cells were treated with MTI-101 or tert-butyl hydrogen peroxide as a positive control for 1 hour, stained with CellRox Green for 30 minutes and washed, with FACS analysis to determine ROS production. All experiments were run in triplicate and repeated 3 independent times. Statistical significance using ANOVA, *P≦0.05. Similar to linear peptide HYD1, the cyclized peptide MTI-101 induces caspase independent cell death in myeloma cell lines.

[2] = system: CD138 cells from newly diagnosed or relapsed patients; test: Cell death in CD138 cells enriched from bone marrow aspirates of myeloma patients, annexin V and FACS, 24 hours; format: cell-based, human; conditions: 10 μM MTI-101, 24 hours
Description: FIGS. 60A-60D. CD138 cells were enriched from the bone marrow aspirates of consented newly diagnosed or relapsed patients and were treated with 10 μM MTI-101, 10 μM Chloroquine or 10 nM Bortezomib or the combination of both agents. Following 24 hours of drug treatment, dell death was measured by annexin V staining and FACS analysis.

[3] = system: U937 cells co-cultured with HS-5/GFP cells; test: Co-culture bone marrow stroma (HS-5/GFP) model of drug resistance (CAM-DR), annexin V and FACS; format: cell-based; conditions: HS-5/GFP co-culture 24 hours prior to drug
Description: FIGS. 63A-63C. MTI-101 induces cell death in AML cell lines without succumbing to CAM-DR. HS-5/GFP cells were co-cultured with U937 cells for 24 hours prior to addition of 100 nM Mitoxantrone (FIG. 63A) or varying concentrations of MTI-101 (FIG. 63B). […] Cell death was measured in the GFP negative AML cells using annexin V to detect dead cells and FACS analysis. Cells cultured in suspension were used as a reference sample for drug sensitivity.

[4] = system: lung cancer (LC) cell lines; test: High-throughput CellTiter-Blue cell viability assay in lung cancer cell lines; format: cell-based; conditions: IC50 values shown only in figure
Description: FIG. 35 is a graph showing IC-50 levels of 24 lung cancer (LC) cell lines treated with cyclized HYD1 (MTI-101). The activity of c-HYD1 was screened using a high-throughput CellTiter-Blue cell viability assay. Cell viability was assessed by the ability of the remaining viable cells to bioreduce resazurin to resorufin. Resazurin is dark blue in color and has little intrinsic fluorescence until it is reduced to resorufin (579 nm Ex/584 nm Em). The change in fluorescence was measured with a Synergy 4 microplate reader (Bio-Tek Instruments, Inc.). […] IC50s were determined as the concentration of drug required for 50% reduction in growth/viability. Shown is the mean IC50 value for each lung cancer cell line tested. Experiments were repeated 2-3 times.
FIG. 67. […] IC50 values were calculated from survival curves and the mean value is represented (n=2 independent experiments).

H929 myeloma cells = format: cell-based, human; conditions: H929 cells
Method in brief: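 Cells exposed to a peptide concentration series for 24 h; cell death read by Topro-3 staining and FACS. IC50 from linear regression of dose-response curves, mean of 3 independent experiments.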

[5] = system: PC9 and HCC4006 cells (activating EGFR mutations); test: MTT survival, combination index with EGFR inhibitor, 72 hours; format: cell-based; conditions: PC9 or HCC4006 cells
Description: FIG. 68. MTI-101 and EGFR inhibitors are synergistic in cell lines with activating EGFR mutations. Cell lines with activating EGFR mutations (PC9 and HCC4006) were treated with varying concentrations of erlotinib or MTI-101 (also referred to as HM-27) for 72 hours and survival was assayed by MTT analysis. Generated data were used to calculate combination index (CI).
FIG. 69. MTI-101 plus EGFR inhibitors are synergistic in lung cancer cell lines with EGFR activating mutations, and MTI-101 plus MEK inhibitors are synergistic in cell lines arboring activating RAS or BRAFF mutations. Values indicate average calculated combination index (CI). Additive (CI=1), synergism (CI<1) and, antagonism (CI>1). […] Cell viability was measured by the MTT assay. Data generated were used to calculate a Chou and Talalay Combination Index (CI).

CCCC[C@@H]1NC(=O)CN(S(C)(=O)=O)CCNC(=O)[C@H](CCCCN)NC(=O)[C@H](CC(C)C)NC(=O)[C@H](CCCCN)NC(=O)[C@H](CC(C)C)NC(=O)[C@H](CCCCN)NC(=O)COC[C@H]2CCCN2C(=O)[C@H](Cc2c[nH]c3ccccc23)NC(=O)[C@H](C)NC(=O)[C@H](C(C)C)NC(=O)[C@H](C(C)C)NC1=O [MTI-101] (Ms-[N(2-Aminoethyl)Gly][Nle]VVAW[dProlinol(O-CH2CO)]KLKLK; lactam 1-C)
cross-resistance (H929-60 cell line): cross-resistance in the H929-60 cell line
cleaved caspase-3 activity in MM cells [1]: does not induce cleaved caspase-3 activity
total cellular ATP in MM cells [1]: reduces total cellular levels of ATP in NCI-H929 and U266 cells
effect of 10 nM Bortezomib on MTI-101 activity ([2]; newly diagnosed patients): increased the activity of MTI-101 in primary patient specimens obtained from newly diagnosed patients
effect of 10 μM Chloroquine on MTI-101 induced cell death ([2]; relapsed myeloma patients): increased the activity of MTI-101 induced cell death in specimens obtained from relapsed myeloma patients
activity in primary patient specimens ([2]; relapsed vs newly diagnosed): more active in specimens obtained from relapsed multiple myeloma (MM) patients
sensitivity in co-culture versus suspension [3]: not resistant in the co-culture bone marrow stroma model of drug resistance
growth of lung cancer cell lines [4]: inhibits the growth of several lung cancer cell lines
IC50 (H929 myeloma cells; read-out: IC50): 1200 nM
fold more potent than linear HYD1 (H929 myeloma cells; reference of the 10- and 15-fold statements not expressly named): 30 fold
combination with EGFR inhibitor Erlotinib [5]: Synergistic growth inhibition
